Measurements as given in patent publication US20230233589A1, “METHODS FOR TREATING CANCER USING A MODIFIED MONOSACCHARIDE COMPOUND” (THERAONCO, priority 2020, published 2023).

Experiment: Clinical follow-up of treated mice (body weight, water consumption)
Assay type: in vivo, NMRI nude mice
Protocol: 45 female NMRI nude mice, 6 weeks old.
Clinical follow-up: animals weight and tumor volume: 2-3 times a week.
Hela and Cal33 Cell Lines • cumulative dose of 20 mg (5 mg/mouse/inj repeated 1 day/2 for 8 days (4 times)) Panc-1 cell line • cumulative dose of […] (9 mg/mouse/injection repeated 1 day/2 for 21 days (11 times))
Hela Cell Lines • cumulative dose of 200 mg per mouse: 25 mg/day (8 mL/day @ 3.13 mg/mL) over 8 days
Cal33 Cell Lines • cumulative dose of 400 mg per mouse: 50 mg/day (8 mL/day @ 6.25 mg/mL) over 8 days
Panc-1 Cell Line • cumulative dose of 200 mg per mouse: 9.5 mg/day (8 mL/day @ 1.19 mg/mL) over 21 days

With [N-]=[N+]=NC[C@H]1OC(O)[C@@H](O)[C@@H]1O (stereo partly drawn) [Ara-N3, 5-azido-5-deoxy-D-arabinofuranose] the “water consumption of the mice” value (Ara-N3 in drinking water up to 6.25 mg/mL) was “did not alter the water consumption”, the body weight loss (treatment by intravenous injections) was “did not induce any body weight loss” and the body weight loss (treatment in drinking water) was “did not induce any body weight loss”.
